# From patent US10450306B2, “Isoxazole analogs as FXR agonists and methods of use thereof” (Enanta Pharmaceuticals, Inc., priority 2016, dated 2019)
# Where two headings read alike, the source gives them in different places.
# Biological target: T1, human FXR (NR1H4) (Homo sapiens, UniProt Q96RI1)
# T1 construct: host or cells: CHO (Chinese hamster ovary) reporter cells
# T1 sequence (Q96RI1 1-486): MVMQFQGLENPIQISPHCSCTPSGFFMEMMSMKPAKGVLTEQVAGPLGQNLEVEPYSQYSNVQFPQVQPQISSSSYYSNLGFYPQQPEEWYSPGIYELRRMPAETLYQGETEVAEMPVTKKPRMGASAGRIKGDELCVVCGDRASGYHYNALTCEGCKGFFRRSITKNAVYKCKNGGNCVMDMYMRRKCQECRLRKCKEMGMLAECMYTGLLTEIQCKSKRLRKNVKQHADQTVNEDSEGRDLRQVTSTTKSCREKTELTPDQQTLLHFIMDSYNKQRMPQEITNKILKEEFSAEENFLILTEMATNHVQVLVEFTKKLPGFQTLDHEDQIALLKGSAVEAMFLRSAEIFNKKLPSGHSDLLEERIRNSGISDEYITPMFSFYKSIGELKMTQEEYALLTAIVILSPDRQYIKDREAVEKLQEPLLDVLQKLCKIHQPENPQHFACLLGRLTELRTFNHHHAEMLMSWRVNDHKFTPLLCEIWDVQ
# Experiment: Human FXR (NR1H4) Assay: Gal4 promoter driven luciferase reporter transactivation in CHO cells (Indigo Bioscience kit IB00601); as to Efficacy (%): efficacy normalized to CDCA set as 100%
# Format: cell-based
# Excerpt: Human FXR (NR1H4) Assay Determination of a ligand mediated Gal4 promoter driven transactivation to quantify ligand binding mediated activation of FXR. FXR Reporter Assay kit purchased from Indigo Bioscience (Catalogue number: IB00601) to determine the potency and efficacy of compound developed by Enanta that can induce FXR activation. The principle application of this reporter assay system is to quantify functional activity of human FXR. The assay utilizes non-human mammalian cells, CHO (Chinese hamster ovary) cells engineered to express human NR1H4 protein (referred to as FXR). Reporter cells also incorporate the cDNA encoding beetle luciferase which catalyzes the substrates and yields photon emission. Luminescence intensity of the reaction is quantified using a plate-reading luminometer, Envision. Reporter Cells include the luciferase reporter gene functionally linked to an FXR responsive promoter. Thus, quantifying changes in luciferase expression in the treated reporter cells provides a sensitive surrogate measure of the changes in FXR activity. […] The assay is according to the manufacturer's instructions. In brief, the assay was performed in white, 96 well plates using final volume of 100 ul containing cells with different doses of compounds. Retrieve Reporter Cells from −80° C. storage. Perform a rapid thaw of the frozen cells by transferring a 10 ml volume of 37° C. cell recovery medium into the tube of frozen cells. Recap the tube of Reporter Cells and immediately place it in a 37° C. water bath for 5-10 minutes. Retrieve the tube of Reporter Cell Suspension from the water bath. Sanitize the outside surface of the tube with a 70% alcohol swab, and then transfer it into the cell culture hood. Dispense 90 μl of cell suspension into each well of the 96-well Assay Plate. Transfer the plate into 37° C. incubator, allowing the cells adherent to the bottom of the well. Dilute compounds in Dilution Plate (DP), and administrate to cells at Assay Plate (AP). DMSO content of the samples was kept at 0.2%. Cells were incubated for additional 22 hours before luciferase activities were measured. Thirty minutes before intending to quantify FXR activity, remove Detection Substrate and Detection Buffer from the refrigerator and place them in a low-light area so that they may equilibrate to room temperature. Remove the plate's lid and discard all media contents by ejecting it into an appropriate waste container. Gently tap the inverted plate onto a clean absorbent paper towel to remove residual droplets. Cells will remain tightly adhered to well bottoms. Add 100 ul of luciferase detection reagent to each well of the assay plate. Allow the assay plate to rest at room temperature for at least 5 minutes following the addition of LDR. Set the instrument (Envision) to perform a single 5 second “plate shake” prior to reading the first assay well. Read time may be 0.5 second (500 mSec) per well.
# [1] = Human FXR (NR1H4) reporter assay, potency ranges
SMILES,"Emax (CHO, read-out: Efficacy (%)) [%]",EC50 [1] [nM],Emax (CHO; read-out: Efficacy (%)) [%]
COC(=O)c1cccc(N2CCN(Cc3c(-c4c(Cl)cccc4Cl)noc3C3CC3)CC2)c1 [Example 187],64,> 1000,
O=C(O)c1cccc(N2CCN(Cc3c(-c4c(Cl)cccc4Cl)noc3C3CC3)CC2)c1 [Example 188],,> 1000,15
COC(=O)c1cc(OC(F)F)c2nc(N3C4CCC3CC(NCc3c(-c5c(Cl)cccc5Cl)noc3C3CC3)C4)sc2c1 (stereo not shown) [Example 189],,1 to 100,73
"O=C(O)c1cc(OC(F)F)c2nc(N3[C@@H]4CC[C@H]3C[C@@H](NCc3c(-c5c(Cl)cccc5Cl)noc3C3CC3)C4)sc2c1 [Example 190, 2-((1R,3r,5S)-3-(((5-cyclopropyl-3-(2,6-dichlorophenyl)isoxazol-4-yl)methyl)amino)-8-azabicyclo[3.2.1]octan-8-yl)-4-(difluoromethoxy)benzo[d]thiazole-6-carboxylic acid]",,< 1,96
Cc1cc2nc(N3C4CCC3CC(NCc3c(-c5c(Cl)cccc5Cl)noc3C3CC3)C4)sc2cc1C(=O)O (stereo not shown) [Example 194],,< 1,81
Cc1c(C(=O)O)ccc2nc(N3C4CCC3CC(NCc3c(-c5c(Cl)cccc5Cl)noc3C3CC3)C4)sc12 (stereo not shown) [Example 196],,1 to 100,83.5
COC(=O)c1ccc2nc(N3C4CCC3CC(NCc3c(-c5c(Cl)cccc5Cl)noc3C3CC3)C4)c(OC)nc2c1 (stereo not shown) [Example 197],,100 to 1000,115
COc1nc2cc(C(=O)O)ccc2nc1N1C2CCC1CC(NCc1c(-c3c(Cl)cccc3Cl)noc1C1CC1)C2 (stereo not shown) [Example 198],,1 to 100,140
COC(=O)c1ccc2nc(N3C4CCC3CC(NCc3c(-c5c(Cl)cccc5Cl)noc3C3CC3)C4)c(Cl)nc2c1 (stereo not shown) [Example 199],,100 to 1000,58
O=C(NCCS(=O)(=O)O)c1cc(F)c2nc(N3C4CCC3CC(NCc3c(-c5c(Cl)cccc5Cl)noc3C3CC3)C4)sc2c1 (stereo not shown) [Example 200-1],,1 to 100,10
COC(=O)c1cc(OC(C)C)c2nc(N3CCC(NCc4c(-c5c(Cl)cccc5Cl)noc4C4CC4)CC3)sc2c1 [Example 200-3],,100 to 1000,35
CC(C)Oc1cc(C(=O)O)cc2sc(N3CCC(NCc4c(-c5c(Cl)cccc5Cl)noc4C4CC4)CC3)nc12 [Example 200-4],,1 to 100,106
COC(=O)c1cc(F)c2nc(N3CCC(NCc4c(-c5c(Cl)cccc5Cl)noc4C4CC4)CC3)sc2c1 [Example 200-5],,100 to 1000,72
O=C(O)c1cc(F)c2nc(N3CCC(NCc4c(-c5c(Cl)cccc5Cl)noc4C4CC4)CC3)sc2c1 [Example 200-6],,1 to 100,86.5
COC(=O)c1cc2sc(N3C4CCC3CC(NCc3c(-c5c(Cl)cccc5Cl)noc3C3CC3)C4)nc2cc1OC (stereo not shown) [Example 200-7],,1 to 100,74.5
COc1cc2nc(N3C4CCC3CC(NCc3c(-c5c(Cl)cccc5Cl)noc3C3CC3)C4)sc2cc1C(=O)O (stereo not shown) [Example 200-8],,< 1,73.5
CCOc1cc(C(=O)OC)cc2sc(N3C4CCC3CC(NCc3c(-c5c(Cl)cccc5Cl)noc3C3CC3)C4)nc12 (stereo not shown) [Example 200-9],,1 to 100,81
CCOc1cc(C(=O)O)cc2sc(N3C4CCC3CC(NCc3c(-c5c(Cl)cccc5Cl)noc3C3CC3)C4)nc12 (stereo not shown) [Example 200-10],,< 1,92.5
COc1cc(C(=O)NCC(=O)O)cc2sc(N3C4CCC3CC(NCc3c(-c5c(Cl)cccc5Cl)noc3C3CC3)C4)nc12 (stereo not shown) [Example 200-11],,1 to 100,75
COc1cc(C(=O)NCCS(=O)(=O)O)cc2sc(N3C4CCC3CC(NCc3c(-c5c(Cl)cccc5Cl)noc3C3CC3)C4)nc12 (stereo not shown) [Example 200-12],,1 to 100,16.5
COC(=O)c1cc(OC(C)C)c2nc(N3C4CCC3CC(NCc3c(-c5c(Cl)cccc5Cl)noc3C3CC3)C4)sc2c1 (stereo not shown) [Example 200-13],,< 1,96

SMILES,"Emax (CHO, read-out: Efficacy (%)) [%]",EC50 [1] [nM],Emax (CHO; read-out: Efficacy (%)) [%]
CC(C)Oc1cc(C(=O)O)cc2sc(N3C4CCC3CC(NCc3c(-c5c(Cl)cccc5Cl)noc3C3CC3)C4)nc12 (stereo not shown) [Example 200-14],,< 1,93.5
COC(=O)c1cc2sc(N3C4CCC3CC(NCc3c(-c5c(Cl)cccc5Cl)noc3C3CC3)C4)nc2cc1F (stereo not shown) [Example 200-15],,1 to 100,75.8
O=C(O)c1cc2sc(N3C4CCC3CC(NCc3c(-c5c(Cl)cccc5Cl)noc3C3CC3)C4)nc2cc1F (stereo not shown) [Example 200-16],,1 to 100,109
COC(=O)c1cnc2nc(N3C4CCC3CC(NCc3c(-c5c(Cl)cccc5Cl)noc3C3CC3)C4)sc2n1 (stereo not shown) [Example 200-17],,1 to 100,51.5
O=C(O)c1cnc2nc(N3C4CCC3CC(NCc3c(-c5c(Cl)cccc5Cl)noc3C3CC3)C4)sc2n1 (stereo not shown) [Example 200-18],,1 to 100,91.3
COC(=O)c1cc2sc(N3C4CCC3CC(NCc3c(-c5c(Cl)cccc5Cl)noc3C3CC3)C4)nc2cc1Br (stereo not shown) [Example 200-19],,1 to 100,50.5
COC(=O)c1ccc2nc(N3C4CCC3CC(NCc3c(-c5c(Cl)cccc5Cl)noc3C3CC3)C4)sc2c1Br (stereo not shown) [Example 200-21],,1 to 100,58
COC(=O)c1cc2sc(N3C4CCC3CC(NCc3c(-c5c(Cl)cccc5Cl)noc3C3CC3)C4)nc2cc1-c1ccccc1 (stereo not shown) [Example 200-23],,1 to 100,76.5
O=C(O)c1cc2sc(N3C4CCC3CC(NCc3c(-c5c(Cl)cccc5Cl)noc3C3CC3)C4)nc2cc1-c1ccccc1 (stereo not shown) [Example 200-24],,1 to 100,96.2
COC(=O)c1ccc2nc(N3C4CCC3CC(NCc3c(-c5c(Cl)cccc5Cl)noc3C3CC3)C4)sc2c1-c1ccccc1 (stereo not shown) [Example 200-25],,1 to 100,58.5
COC(=O)c1cc2sc(N3C4CCC3CC(NCc3c(-c5c(Cl)cccc5Cl)noc3C3CC3)C4)nc2c2ccccc12 (stereo not shown) [Example 200-27],,1 to 100,28.3
O=C(O)c1cc2sc(N3C4CCC3CC(NCc3c(-c5c(Cl)cccc5Cl)noc3C3CC3)C4)nc2c2ccccc12 (stereo not shown) [Example 200-28],,< 1,132
COC(=O)c1cc(C2CC2)c2nc(N3C4CCC3CC(NCc3c(-c5c(Cl)cccc5Cl)noc3C3CC3)C4)sc2c1 (stereo not shown) [Example 200-29],,1 to 100,94
O=C(O)c1cc(C2CC2)c2nc(N3C4CCC3CC(NCc3c(-c5c(Cl)cccc5Cl)noc3C3CC3)C4)sc2c1 (stereo not shown) [Example 200-30],,< 1,108
O=C(NS(=O)(=O)C1CC1)c1ccc2nc(N3C4CCC3CC(NCc3c(-c5c(Cl)cccc5Cl)noc3C3CC3)C4)sc2c1 (stereo not shown) [Example 201],,< 1,282
CC1(S(=O)(=O)NC(=O)c2ccc3nc(N4C5CCC4CC(NCc4c(-c6c(Cl)cccc6Cl)noc4C4CC4)C5)sc3c2)CC1 (stereo not shown) [Example 202],,< 1,279
O=C(NS(=O)(=O)N1CCCC1)c1ccc2nc(N3C4CCC3CC(NCc3c(-c5c(Cl)cccc5Cl)noc3C3CC3)C4)sc2c1 (stereo not shown) [Example 227],,< 1,256
O=C(NS(=O)(=O)N1CCCCC1)c1ccc2nc(N3C4CCC3CC(NCc3c(-c5c(Cl)cccc5Cl)noc3C3CC3)C4)sc2c1 (stereo not shown) [Example 228],,1 to 100,140
O=C(NS(=O)(=O)C1CCCC1)c1ccc2nc(N3C4CCC3CC(NCc3c(-c5c(Cl)cccc5Cl)noc3C3CC3)C4)sc2c1 (stereo not shown) [Example 231],,< 1,277
O=C(NS(=O)(=O)N1CCOCC1)c1ccc2nc(N3C4CCC3CC(NCc3c(-c5c(Cl)cccc5Cl)noc3C3CC3)C4)sc2c1 (stereo not shown) [Example 234],,100 to 1000,146
